Results on 2 molecules are retold here after PMC12006171, “Marsupial cathelicidins: characterization, antimicrobial activity and evolution in this unique mammalian lineage” (Frontiers in Immunology, 2025).

Values after ≈ are worked out from the molar mass of the structure shown. Read-outs that look alike come from different tables or passages of the source. Where a SMILES comes first, the peptide text is derived from it.

Assay type in all cases: cell-based
In assay [1] the test system is Escherichia coli ATCC 25922. In words: microbe, parasite or virus in culture. Particulars: ATCC 25922. A digest of the protocol: (§1)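 Bacteria at a final 5 x 10^5 CFU/mL were incubated 20–24 h at 35 °C with DMSO-solubilized peptides serially diluted to 64–0.125 μg/mL in Mueller Hinton broth (± lysed horse blood, ± divalent cations). MIC read as no visible growth; bactericidal action from colony counts compared with the inoculum.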

Assay [2] concerns Escherichia coli clinical isolate - animal. Nature of the assay: microbe, parasite or virus in culture. The conditions noted are these: clinical isolate - animal. A digest of the protocol: as §1
In assay [3] the test system is Pseudomonas aeruginosa ATCC 27853. In words: microbe, parasite or virus in culture. The conditions noted are these: ATCC 27853. The procedure, abridged:
as §1

For assay [4], the system named is Pseudomonas aeruginosa clinical isolate - animal. Nature of the assay: microbe, parasite or virus in culture. Particulars: clinical isolate - animal. The procedure, abridged: as §1
Assay [5] deals with Staphylococcus aureus ATCC 29213. Nature of the assay: microbe, parasite or virus in culture. The conditions noted are these: ATCC 29213. A digest of the protocol:
as §1

Assay [6] has as its system Candida albicans Clinical isolate - human. Nature of the assay: microbe, parasite or virus in culture. The conditions noted are these: Clinical isolate - human. The procedure, abridged:
(§2)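 MIC defined as lowest peptide level preventing visible growth after 20–24 h at 35°C. Candida tested in RPMI-1640 MOPS; bacteria in Mueller Hinton broth, optionally with 10% lysed horse blood and/or divalent cations. Final peptide range 64-0.125 μg/mL, starting inoculum 5 x 10^5 CFU/mL, per CLSI M07-A/M26A.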

For the next assay, the system named is Candida krusei ATCC 6258. In words: microbe, parasite or virus in culture. The conditions noted are these: ATCC 6258. The procedure, abridged:
as §2

Assay [7] relates to Candida parapsilosis ATCC 22019. In words: microbe, parasite or virus in culture. Particulars: ATCC 22019; for MIC: read-out: MIC C. parapsilosis ATCC. The procedure, abridged:
as §2

Assay [8] deals with Streptococcus agalactiae ATCC 12386. In words: microbe, parasite or virus in culture. Particulars: ATCC 12386; read-out: MIC S. agalactiae ATCC. The procedure, abridged: as §2
Assay [9] has as its system Streptococcus agalactiae Clinical isolate - animal. In words: microbe, parasite or virus in culture. Particulars: clinical isolate - animal. A digest of the protocol:
as §2

In assay [10] the test system is Streptococcus pneumoniae ATCC 49619. In words: microbe, parasite or virus in culture. Particulars: ATCC 49619; read-out: MIC S. pneumoniae ATCC. A digest of the protocol: as §2
For assay [11], the system named is Staphylococcus aureus clinical isolate – animal, methicillin-resistant (MRSA). The conditions noted are these: clinical isolate – animal, methicillin-resistant. On the procedure:
(§3) Antimicrobial testing of 78 cathelicidin MPs was performed in two phases as outlined in Figure 1 . In phase I, 40 peptides (27 extant and 13 ancestral) were selected for testing based on rank (outlined above) and similarity to published marsupial cathelicidins with known antimicrobial activity ([33], [41]–[43]). These peptides were tested against nine bacteria (Staphylococcus aureus ATCC 29213 and clinical isolate, Escherichia coli ATCC 25922 and clinical isolate, Pseudomonas aeruginosa ATCC 27853 and clinical isolate, Streptococcus agalactiae ATCC 12386 and clinical isolate, Streptococcus pneumoniae ATCC 49619) and three fungi (Candida krusei ATCC 6258, Candida parapsilosis ATCC 22019, and Candida albicans clinical isolate). Details regarding these strains are available in Supplementary Table 4 . The antimicrobial activity of cathelicidins was determined as the minimum inhibitory concentration (MIC), which was the lowest concentration of cathelicidin that prevented visible bacterial or fungal growth, relative to the negative control. […] Minimum bactericidal concentration (MBC) and/or minimum fungicidal concentration (MFC) was conducted to determine microbicidal versus static action. Activity against S. aureus ATCC, E. coli ATCC, and Pseudomonas aeruginosa ATCC 27853 was examined in the presence of divalent cations to determine the impact of inhibitors.
(§4) Antimicrobial activity was determined using a broth microdilution susceptibility assay in 96 well polypropylene plates according to Clinical Laboratory Standards Institute guidelines M07-A and M26A as described previously ([33], [42], [43]). The bacterial and fungal isolates from humans and animals used in this study are outlined in Supplementary Table 4 . Only yeasts were included in the panel of fungi as they have been used in the susceptibility testing of eutherian ([3], [81]–[83]) and other marsupial cathelicidins previously ([33], [42], [43]). Cathelicidin mature peptides were solubilized in DMSO and serially diluted in duplicate from 128-0.25μg/mL in a final volume of 100µL. For bacteria, cathelicidins were diluted in Mueller Hinton Broth (MHB) with or without 10% lysed horse blood, and with (MH II B) or without (MHB) calcium and magnesium cations. For fungi, cathelicidins were diluted in Roswell Park Memorial Institute medium (RPMI)-1640 MOPS. Ampicillin or tetracycline were included as a positive control for Gram-positive and -negative bacteria respectively, while amphotericin B was used for fungi. A media-only negative control and growth control (no cathelicidin) were also included on each plate. Bacteria were sub-cultured on Muller Hinton agar (MHA) or sheep blood agar (BA), and fungi on Sabouraud dextrose agar (SAB), 20–24 hours prior to the test. Colonies were suspended in saline, the concentration adjusted to a 0.5 McFarland standard, and then diluted in media to a concentration of 1.0 x 10^6 cells/mL. Then, 100μL was added to each well of the cathelicidin dilution plate, giving a final inoculum density of 5 x 10^5 CFU/mL and cathelicidin concentration of 64-0.125μg/mL. Colony counts were performed on MHA/BA/SAB to confirm inoculum density. All plates were incubated at 35°C for 20–24 hours, depending on the strain.
(§5) Colonies were counted and compared to the colony count of the starting inoculum.

Assay [12] relates to Staphylococcus aureus clinical isolate – animal, penicillin-resistant (PRSA). The conditions noted are these: clinical isolate – animal, penicillin-resistant (PRSA). On the procedure:
as §3, §4, §5

The subject of assay [13] is Staphylococcus aureus clinical isolate - animal. Nature of the assay: microbe, parasite or virus in culture. The conditions noted are these: clinical isolate - animal; read-out: MIC S. aureus. A digest of the protocol:
as §1

The mark [14] stands for this setting: read-out: MIC P. aeruginosa ATCC.

With `CC[C@H](C)[C@H](NC(=O)CNC(=O)[C@H](C)NC(=O)[C@H](CC(C)C)NC(=O)[C@@H](NC(=O)[C@H](CCCNC(=N)N)NC(=O)[C@@H](NC(=O)[C@H](CCCNC(=N)N)NC(=O)[C@@H](N)CCCCN)[C@@H](C)CC)[C@@H](C)CC)C(=O)N[C@@H](Cc1c[nH]c2ccccc12)C(=O)N[C@@H](CC(=O)O)C(=O)N[C@@H](CCCNC(=N)N)C(=O)N[C@@H](CC(C)C)C(=O)N[C@@H](CCCCN)C(=O)N[C@@H](CC(N)=O)C(=O)N[C@@H](CC(C)C)C(=O)NCC(=O)N[C@@H](CC(N)=O)C(=O)N[C@@H](CCCNC(=N)N)C(=O)N[C@H](C(=O)N[C@@H](CCCCN)C(=O)N[C@@H](CC(N)=O)C(=O)N[C@@H](CCCNC(=N)N)C(=O)N[C@@H](CC(C)C)C(=O)N[C@@H](CCCNC(=N)N)C(=O)N[C@@H](CC(=O)O)C(=O)N[C@@H](Cc1ccccc1)C(=O)N[C@@H](Cc1ccccc1)C(=O)N[C@@H](CO)C(=O)O)[C@@H](C)CC` [AnstCath5] (H-KRIRILAGIWDRLKNLGNRIKNRLRDFFS-OH), the “MBC E. coli ATCC” value in assay [1] was 8.9 µM (≈ 31.8 µg/mL). For the same molecule, the MIC in assay [1] (read-out: MIC E. coli ATCC) is 4.4 µM (≈ 15.7 µg/mL); in assay [1] (read-out: MIC in the presence of cations E. coli ATCC), 4.4 µM; in assay [2] it was 8.9 µM (≈ 31.8 µg/mL); in [3] (setting [14]), over 17.9 µM; in assay [4] (read-out: MIC P. aeruginosa) it was 8.9 µM (≈ 31.8 µg/mL); in [4] (read-out: MIC in the presence of cations P. aeruginosa) it was 17.9 µM. The MIC was 4.4 µM (≈ 15.7 µg/mL) in [5] (read-out: MIC S. aureus ATCC); 4.4 µM in [5] (read-out: MIC in the presence of cations S. aureus ATCC); 13.5 µM (≈ 48.2 µg/mL) in assay [7]; over 17.9 µM in [8]; over 17.9 µM in assay [10]. In addition, the “MBC E. coli” value in assay [2] was determined as 17.9 µM (≈ 63.9 µg/mL). In assay [2], the “MIC in the presence of cations E. coli” value amounted to 8.9 µM. The “MBC P. aeruginosa” value in assay [4] amounted to 17.9 µM (≈ 63.9 µg/mL). The “MBC S. aureus ATCC” value in [5] is 8.9 µM (≈ 31.8 µg/mL). The MFC C. albicans in assay [6] is over 27.1 µM. This molecule also returned an MIC C. albicans in [6] of 27.1 µM (≈ 96.8 µg/mL). Further, in the assay on Candida krusei ATCC 6258, the MFC C. krusei ATCC came out at 13.5 µM (≈ 48.2 µg/mL). This molecule also yielded an MIC C. krusei ATCC in the assay on Candida krusei ATCC 6258 of 13.5 µM (≈ 48.2 µg/mL). Also, the “MFC C. parapsilosis ATCC” value in assay [7] was over 27.1 µM. The MBC S. agalactiae in assay [9] is 8.9 µM (≈ 31.8 µg/mL). The molecule further returned an MIC S. agalactiae in assay [9] of 8.9 µM (≈ 31.8 µg/mL). Further, the “MBC MRSA” value in assay [11] stood at 8.9 µM (≈ 31.8 µg/mL). Also, in assay [11], the “MIC MRSA” value was 4.4 µM (≈ 15.7 µg/mL). This molecule also registered an MBC PRSA in assay [12] of 4.4 µM (≈ 15.7 µg/mL). Also, the MIC PRSA in assay [12] is 4.4 µM (≈ 15.7 µg/mL).
Turning to `CC[C@H](C)[C@H](NC(=O)[C@H](CCCCN)NC(=O)[C@H](Cc1ccccc1)NC(=O)[C@H](CC(N)=O)NC(=O)[C@H](CCCCN)NC(=O)[C@H](CC(C)C)NC(=O)[C@H](CCCNC(=N)N)NC(=O)[C@H](CCCCN)NC(=O)[C@H](CCCCN)NC(=O)[C@@H](NC(=O)[C@H](CCC(=O)O)NC(=O)[C@H](CC(=O)O)NC(=O)CNC(=O)[C@H](Cc1ccccc1)NC(=O)[C@H](CCCCN)NC(=O)[C@H](CCCCN)NC(=O)[C@H](CC(C)C)NC(=O)[C@H](CCCCN)NC(=O)[C@H](CCCCN)NC(=O)[C@H](CCCCN)NC(=O)[C@H](CC(C)C)NC(=O)[C@H](Cc1c[nH]c2ccccc12)NC(=O)[C@H](CCCNC(=N)N)NC(=O)[C@H](Cc1ccccc1)NC(=O)CNC(=O)CNC(=O)[C@H](CCCNC(=N)N)NC(=O)[C@@H](N)CCCCN)[C@@H](C)CC)C(=O)NCC(=O)N[C@@H](Cc1ccccc1)C(=O)N[C@@H](CC(C)C)C(=O)N[C@H](C(=O)N1CCC[C@H]1C(=O)N[C@@H](CC(C)C)C(=O)O)[C@@H](C)CC` [MAP13] (H-KRGGFRWLKKKLKKFGDEIKKRLKNFKIGFLIPL-OH), the “MBC E. coli ATCC” value in [1] was 7.7 (7.7)^7.7 µM. Moreover, the “MIC E. coli ATCC” value in assay [1] is 7.7 (7.7)^7.7 µM. The “MIC in the presence of cations E. coli ATCC” value in assay [1] is 7.7 (7.7)^7.7 µM. Further, the “MBC E. coli” value in assay [2] is recorded as 7.7 (7.7)^7.7 µM. Moreover, the “MIC E. coli” value in assay [2] is given as 7.7 (7.7)^7.7 µM. Moreover, the “MIC in the presence of cations E. coli” value in assay [2] was 7.7 (7.7)^7.7 µM. Besides, the “MBC P. aeruginosa ATCC” value in assay [3] stood at 15.4 µM (≈ 63.6 µg/mL). In addition, the MIC in assay [3] (setting [14]) is 7.7 µM (≈ 31.8 µg/mL); in assay [3] (read-out: MIC in the presence of cations P. aeruginosa ATCC), 15.4 µM; in [5] (read-out: MIC S. aureus ATCC), over 15.4 µM; in assay [13], over 15.4 µM; in [6] (read-out: MIC C. albicans) it was over 15.4 µM; in the assay with Candida krusei ATCC 6258 (read-out: MIC C. krusei ATCC), over 15.4 µM. The MIC in assay [7] is given as 7.7 µM (≈ 31.8 µg/mL); in assay [8] it was over 15.4 µM; in assay [9] (read-out: MIC S. agalactiae), over 15.4 µM; in assay [10], over 15.4 µM. In addition, the “MBC P. aeruginosa” value in assay [4] is given as 15.4 (15.4)^15.4 µM. In assay [4], the “MIC P. aeruginosa” value is listed as 15.4 (15.4)^15.4 µM. For the same molecule, the “MIC in the presence of cations P. aeruginosa” value in assay [4] is reported as 15.4 (15.4)^15.4 µM. In assay [7], the “MFC C. parapsilosis ATCC” value is reported as over 15.4 µM.
